These results are taken from PMC6017357, “In Vitro Inhibitory Effects of Synthetic Cannabinoid EAM-2201 on Cytochrome P450 and UDP-Glucuronosyltransferase Enzyme Activities in Human Liver Microsomes” (Molecules : A Journal of Synthetic Chemistry and Natural …, 2018).

This assay has as its target T1, UGT1A6 (Homo sapiens, UniProt P19224).
T1 construct: ultrapooled human liver microsomes (0.2 mg/mL), 5 mM UDPGA; from tissue; host or cells: ultrapooled human liver microsomes
T1 sequence (P19224 27-532): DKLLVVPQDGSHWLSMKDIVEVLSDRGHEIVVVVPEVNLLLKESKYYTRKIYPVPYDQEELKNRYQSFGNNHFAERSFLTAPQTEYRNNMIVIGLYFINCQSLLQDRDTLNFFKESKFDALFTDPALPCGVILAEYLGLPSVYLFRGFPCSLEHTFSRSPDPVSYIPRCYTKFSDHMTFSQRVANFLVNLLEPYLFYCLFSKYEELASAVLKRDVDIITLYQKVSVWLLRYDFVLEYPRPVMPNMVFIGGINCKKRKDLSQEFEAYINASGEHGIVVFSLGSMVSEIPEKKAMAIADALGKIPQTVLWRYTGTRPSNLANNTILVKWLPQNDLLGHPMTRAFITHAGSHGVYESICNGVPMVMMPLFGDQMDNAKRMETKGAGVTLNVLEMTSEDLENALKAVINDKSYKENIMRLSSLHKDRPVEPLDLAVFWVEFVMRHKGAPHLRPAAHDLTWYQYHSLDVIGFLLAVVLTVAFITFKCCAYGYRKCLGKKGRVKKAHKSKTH
Briefly: UGT1A6-catalyzed N-acetylserotonin glucuronidation in human liver microsomes. Type of assay: in vitro ADME. The settings on record: at 50 µM. The protocol: The inhibitory effects of EAM-2201 on UGT1A1, UGT1A3, UGT1A4, UGT1A6, UGT1A9 and UGT2B7 were evaluated using LC-MS/MS and the cocktail of UGT substrates as previously described. Each incubation mixture was prepared in a final volume of 100 µL as follows: ultrapooled human liver microsomes (0.2 mg/mL), 5 mM UDPGA, 10 mM magnesium chloride, alamethicin (25 µg/mL), 50 mM Tris buffer (pH 7.4), various concentrations of EAM-2201 in DMSO (final concentrations of 1–50 µM, 0.5% DMSO) and the UGT enzyme-specific substrates of two cocktail sets (set A: 0.5 µM SN-38, 2 µM chenodeoxycholic acid and 0.5 µM trifluoperazine; set B: 1 µM N-acetylserotonin, 0.2 µM mycophenolic acid and 1 µM naloxone, acetonitrile content, 0.5%). […] Supernatant from sets A and B (50 µL of each) was mixed and aliquots (5 µL) were analyzed by LC-MS/MS. […]
The metabolites formed from the six UGT cocktail substrates were simultaneously measured using LC-MS/MS [41]. […] Each metabolite was quantified via SRM in the negative ion mode: chenodeoxycholic acid 24-acyl-β-glucuronide, 567.2 > 391.0; mycophenolic acid glucuronide, 495.2 > 318.9; and propofol glucuronide (IS), 353.3 > 177.1; and in the positive ion mode: SN-38 glucuronide, 569.0 > 393.0; trifluoperazine glucuronide, 584.2 > 408.1; N-acetylserotonin-β-D-glucuronide, 395.2 > 219.0; naloxone 3-β-D-glucuronide, 504.0 > 310.0; and meloxicam (IS), 352.0 > 115.1. […]

Each structure is given as a SMILES string.

On to `CCc1ccc(C(=O)c2cn(CCCCCF)c3ccccc23)c2ccccc12` [EAM-2201, (4-ethyl-1-naphthalenyl)[1-(5-fluoropentyl)-1H-indol-3-yl]-methanone], for which the “inhibition of UGT1A6-catalyzed N-acetylserotonin glucuronidation” value was “negligibly inhibited”.
